# Laboratory results: ChEMBL document CHEMBL5500373, “Lead optimization based design, synthesis, and pharmacological evaluation of quinazoline derivatives as multi-targeting agents for Alzheimer's disease treatment” (Eur J Med Chem, 2024)
# Active and inactive are the calls of the source. The calls are words filed in the database; no cut-off is given here.
# Assays:
# [1] = MRT in male Wistar rat at 20 mg/kg, po measured upto 32 hrs by high-performance liquid chromatography; type: ADME, organism-based; settings: in vivo
# [2] = Drug concentration in male Wistar rat brain homogenate at 20 mg/kg, po measured after 4 days; type: ADME, organism-based; settings: time 4 day, read-out: Ct
# [3] = system: Drosophila melanogaster; experiment: Reversal of ey-GAL4 driven UAS-amyloid beta induced cellular toxicity in Drosophila melanogaster Oregon R-positive model assessed as increase in rescued eye phenotype at 10 uM by trinocular stereo-zoom microscope relative to control; type: functional
# [4] = system: Drosophila melanogaster; experiment: Reversal of ey-GAL4 driven UAS-amyloid beta induced cellular toxicity in Drosophila melanogaster Oregon R-positive model assessed as increase in cell viability in gut at 1 uM by MTT assay relative to control; type: functional
# [5] = Acute toxicity in female Wistar rat assessed as effect on hepatic functional parameters at 100 to 500 mg/kg, po measured after 14 days; type: organism-based; settings: in vivo, 336 h, dose 100-500 mg/kg, time 14 day
# [6] = system: Drosophila melanogaster; experiment: Reversal of ey-GAL4 driven UAS-amyloid beta induced cellular toxicity in Drosophila melanogaster Oregon R-positive model assessed as increase in cell viability in gut at 5 uM by MTT assay relative to control; type: functional
# [7] = molecular target: Amyloid-beta precursor protein (Homo sapiens) (UniProt P05067); experiment: Inhibition of amyloid beta (1 to 42 residues) (unknown origin) aggregation assessed as reduction in massive oligomers measured after 3 days by AFM analysis; settings: time 3.0 day
# [8] = Cmax in male Wistar rat at 20 mg/kg, po measured upto 32 hrs by high-performance liquid chromatography; type: ADME, organism-based; settings: in vivo
# [9] = Tmax in male Wistar rat at 20 mg/kg, po measured upto 32 hrs by high-performance liquid chromatography; type: ADME, organism-based; settings: in vivo
# [10] = Drug concentration in male Wistar rat brain homogenate at 10 mg/kg, po measured after 4 days; type: ADME, organism-based; settings: time 4 day, read-out: Ct
# [11] = Acute toxicity in female Wistar rat assessed as histopathological changes in brain at 100 to 500 mg/kg, po measured after 14 days; type: organism-based; settings: in vivo, 336 h, dose 100-500 mg/kg, time 14 day
# [12] = system: Drosophila melanogaster; experiment: Reversal of ey-GAL4 driven UAS-amyloid beta induced cellular toxicity in Drosophila melanogaster Oregon R-positive model assessed as increase in cell viability in gut at 50 uM by MTT assay relative to control; type: functional
# [13] = Acute toxicity in female Wistar rat assessed as histopathological changes in kidneys at 100 to 500 mg/kg, po measured after 14 days; type: organism-based; settings: in vivo, 336 h, dose 100-500 mg/kg, time 14 day
# [14] = molecular target: Amyloid-beta precursor protein (Homo sapiens) (UniProt P05067); experiment: Inhibition of amyloid beta (1 to 42 residues) (unknown origin) aggregation assessed as reduction in fibrils measured after 3 days by AFM analysis; settings: time 3.0 day
# [15] = molecular target: Amyloid-beta precursor protein (Homo sapiens) (UniProt P05067); experiment: Inhibition of self induced amyloid beta (1 to 42 residues) (unknown origin) aggregation at 5 to 20 uM measured after 48 hrs by thioflavin T based fluorescence analysis relative to control; settings: dose 5-20 µM
# [16] = molecular target: T1, Acetylcholinesterase (Homo sapiens, UniProt P22303); experiment: Inhibition of human AChE using acetylthiocholine iodide as substrate assessed as reversal of enzyme activity by measuring remaining activity at 10 to 100 times IC50 incubated for 30 mins followed by dilution to 0.1 to 1 times IC50 with substrate
# [17] = system: Drosophila melanogaster; experiment: Reversal of ey-GAL4 driven UAS-amyloid beta induced cellular toxicity in Drosophila melanogaster Oregon R-positive model assessed as reduction in severe ommatidial death eye phenotype at 10 uM by trinocular stereo-zoom microscope relative to control; type: functional; set-up: scale not given: the % may be the effect or the level left
# [18] = Acute toxicity in female Wistar rat assessed as effect on renal functional parameters at 100 to 500 mg/kg, po measured after 14 days; type: organism-based; settings: in vivo, 336 h, dose 100-500 mg/kg, time 14 day
# [19] = Neurotoxicity against retinoic acid/BDNF differentiated human SH-SY5Y cells assessed as reduction in cell viability at 80 uM incubated for 24 hrs by MTT assay relative to control; type: toxicity, cell-based
# [20] = in vitro; settings: PAMPA
# [21] = system: Rattus norvegicus; experiment: Reversal of amyloid beta (1 to 42 residues) induced cognitive impairment in female Wistar rat assessed as reduction in amyloid beta level in brain hippocampus at 20 mg/kg, po pretreated with amyloid beta for 7 days followed by compound administration and measured after 5 days by immunohistochemistry analysis; type: functional, organism-based; settings: time 5.0 day
# [22] = Acute toxicity in female Wistar rat assessed as signs of toxicity at 100 to 500 mg/kg, po measured after 14 days; type: organism-based; settings: in vivo, 336 h, dose 100-500 mg/kg, time 14 day
# [23] = molecular target: Amyloid-beta precursor protein (Homo sapiens) (UniProt P05067); experiment: Inhibition of self induced amyloid beta (1 to 42 residues) (unknown origin) aggregation assessed as reduction in NFI measured after 48 hrs by thioflavin T based fluorescence analysis; settings: dose 5-20 µM
# [24] = system: Drosophila melanogaster; experiment: Reversal of ey-GAL4 driven UAS-amyloid beta induced cellular toxicity in Drosophila melanogaster Oregon R-positive model assessed as reduction in severe ommatidial death eye phenotype at 15 uM by trinocular stereo-zoom microscope relative to control; type: functional; set-up: scale not given: the % may be the effect or the level left
# [25] = molecular target: T1, Acetylcholinesterase; experiment: Inhibition of human AChE using acetylthiocholine iodide as substrate assessed as reduction in enzyme activity at 10 to 100 times IC50 incubated for 30 mins
# [26] = system: Drosophila melanogaster; experiment: Reversal of ey-GAL4 driven UAS-amyloid beta induced cellular toxicity in Drosophila melanogaster Oregon R-positive model assessed as increase in cell viability in gut at 10 uM by MTT assay relative to control; type: functional
# [27] = molecular target: Amyloid-beta precursor protein (Homo sapiens) (UniProt P05067); experiment: Inhibition of amyloid beta (1 to 42 residues) (unknown origin) aggregation assessed as disaggregation by measuring reduction in fluorescence intensity measured after 3 days by confocal microscopic analysis; settings: time 3.0 day
# [28] = Acute toxicity in female Wistar rat assessed as adverse side effects at 100 to 500 mg/kg, po measured after 14 days; type: organism-based; settings: in vivo, 336 h, dose 100-500 mg/kg, time 14 day
# [29] = system: Drosophila melanogaster; experiment: Reversal of ey-GAL4 driven UAS-amyloid beta induced cellular toxicity in Drosophila melanogaster Oregon R-positive model assessed as reduction in mild ommatidial death eye phenotype at 10 uM by trinocular stereo-zoom microscope relative to control; type: functional; set-up: scale not given: the % may be the effect or the level left
# [30] = molecular target: Cholinesterase (Homo sapiens, UniProt P06276); experiment: Inhibition of human serum BChE using butyrylthiocholine iodide as substrate preincubated for 30 mins followed by substrate addition and measured after 30 mins by DTNB based Ellman's method
# [31] = system: Rattus norvegicus; experiment: Reversal of amyloid beta (1 to 42 residues) induced cognitive impairment in female Wistar rat assessed as reduction in escape latency time at 20 mg/kg, po pretreated with amyloid beta for 7 days followed by compound administration and measured after 5 days by Morris water maze test; type: functional, organism-based; settings: time 5.0 day
# [32] = Toxicity in Drosophila melanogaster Oregon R-positive assessed as reduction in eclosed flies at embryonic stage at 200 uM measured until 15 days relative to control; set-up: scale not given: the % may be the effect or the level left; settings: 360 h, time 15 day
# [33] = Toxicity in Drosophila melanogaster Oregon R-positive assessed as reduction in cell viability upto 50 uM measured until 15 days; settings: 360 h, time 15 day
# [34] = system: Rattus norvegicus; experiment: Reversal of amyloid beta (1 to 42 residues) induced cognitive impairment in female Wistar rat assessed as increase in neuronal arrangements in brain at 20 mg/kg, po pretreated with amyloid beta for 7 days followed by compound administration and measured after 5 days by Nissls staining based light microscopic analysis; type: functional, organism-based; settings: time 5.0 day
# [35] = molecular target: T1, Acetylcholinesterase; experiment: Non-competitive inhibition of human AChE using varying concentrations of acetylthiocholine iodide as substrate assessed as reduction in Vmax with constant Km at 0.03 to 0.3 uM by Lineweaver-Burk double reciprocal plot analysis; settings: dose 0.03-0.3 µM
# Amyloid-beta precursor protein (Homo sapiens), sequence (P05067 whole entry, the tested form may be a part): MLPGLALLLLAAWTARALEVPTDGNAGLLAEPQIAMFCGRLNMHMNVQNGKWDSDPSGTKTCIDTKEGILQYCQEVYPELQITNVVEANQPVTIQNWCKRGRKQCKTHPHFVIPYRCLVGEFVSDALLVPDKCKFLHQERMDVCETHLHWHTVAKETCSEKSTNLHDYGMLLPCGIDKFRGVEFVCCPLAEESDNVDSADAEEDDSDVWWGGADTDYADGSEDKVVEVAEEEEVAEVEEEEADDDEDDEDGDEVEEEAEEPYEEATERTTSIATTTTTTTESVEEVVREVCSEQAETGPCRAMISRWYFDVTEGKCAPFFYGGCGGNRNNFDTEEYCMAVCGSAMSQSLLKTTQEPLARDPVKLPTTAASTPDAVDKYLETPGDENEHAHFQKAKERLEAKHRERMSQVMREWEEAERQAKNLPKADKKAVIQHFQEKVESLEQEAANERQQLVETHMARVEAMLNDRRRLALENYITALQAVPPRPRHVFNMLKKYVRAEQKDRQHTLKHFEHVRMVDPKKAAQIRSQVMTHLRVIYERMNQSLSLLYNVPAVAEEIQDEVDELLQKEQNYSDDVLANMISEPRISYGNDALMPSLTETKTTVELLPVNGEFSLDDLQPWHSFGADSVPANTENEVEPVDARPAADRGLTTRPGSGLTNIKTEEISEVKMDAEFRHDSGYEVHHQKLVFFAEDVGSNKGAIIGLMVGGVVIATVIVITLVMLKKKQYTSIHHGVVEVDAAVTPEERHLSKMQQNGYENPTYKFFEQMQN
# T1 sequence (P22303 whole entry, the tested form may be a part): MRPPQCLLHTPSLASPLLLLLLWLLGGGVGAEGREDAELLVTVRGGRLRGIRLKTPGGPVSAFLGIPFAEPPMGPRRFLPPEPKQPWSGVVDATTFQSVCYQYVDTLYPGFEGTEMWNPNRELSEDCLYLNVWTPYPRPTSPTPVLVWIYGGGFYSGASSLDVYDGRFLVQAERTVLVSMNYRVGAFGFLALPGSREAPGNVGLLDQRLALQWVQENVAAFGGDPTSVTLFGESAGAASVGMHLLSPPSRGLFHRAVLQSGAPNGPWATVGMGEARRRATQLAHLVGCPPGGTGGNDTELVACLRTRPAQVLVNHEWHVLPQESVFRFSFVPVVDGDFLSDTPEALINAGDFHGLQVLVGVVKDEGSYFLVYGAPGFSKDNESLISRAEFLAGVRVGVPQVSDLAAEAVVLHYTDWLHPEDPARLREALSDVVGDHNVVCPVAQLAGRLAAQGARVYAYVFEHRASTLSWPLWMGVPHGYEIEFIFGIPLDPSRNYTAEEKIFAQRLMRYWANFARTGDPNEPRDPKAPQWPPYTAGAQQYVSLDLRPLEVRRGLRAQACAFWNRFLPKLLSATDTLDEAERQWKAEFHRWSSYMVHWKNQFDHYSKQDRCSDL
# Cholinesterase, sequence (P06276 whole entry, the tested form may be a part): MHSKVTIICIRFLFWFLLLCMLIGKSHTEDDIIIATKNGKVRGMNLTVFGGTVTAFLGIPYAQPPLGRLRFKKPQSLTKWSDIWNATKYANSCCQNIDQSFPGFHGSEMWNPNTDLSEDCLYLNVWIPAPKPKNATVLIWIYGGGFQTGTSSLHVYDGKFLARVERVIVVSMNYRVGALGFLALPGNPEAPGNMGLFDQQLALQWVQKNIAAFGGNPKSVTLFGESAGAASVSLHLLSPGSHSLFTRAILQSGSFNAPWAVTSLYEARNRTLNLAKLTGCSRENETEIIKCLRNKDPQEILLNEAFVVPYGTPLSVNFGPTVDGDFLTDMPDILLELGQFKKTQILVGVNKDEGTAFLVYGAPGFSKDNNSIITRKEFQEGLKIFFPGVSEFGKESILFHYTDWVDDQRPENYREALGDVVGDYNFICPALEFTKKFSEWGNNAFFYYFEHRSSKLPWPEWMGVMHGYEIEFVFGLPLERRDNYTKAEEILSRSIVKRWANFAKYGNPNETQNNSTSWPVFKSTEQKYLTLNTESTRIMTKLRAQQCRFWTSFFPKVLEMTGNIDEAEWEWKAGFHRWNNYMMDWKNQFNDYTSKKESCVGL
compound,measurement,setting,value
COc1cc2ncnc(N3CCN(Cc4ccccc4)CC3)c2cc1OC,MRT,[1],6.07 h
same,concentration at 96 h,[2],977 ng/mL
same,Activity,[3],36.6%
same,Activity,[4],69%
same,Activity,[5],Non-Toxic
same,Activity,[6],82%
same,inhibition,[7],Active
same,Cmax,[8],1340 ng/mL
same,Tmax,[9],3 h
same,concentration at 96 h,[10],633 ng/mL
same,Activity,[11],Non-Toxic
same,Activity,[12],75%
same,Activity,[13],Non-Toxic
same,inhibition,[14],Active
same,inhibition,[15],27.3%
same,Activity,[16],> 60%
same,Activity,[17],23.3%
same,Activity,[18],Non-Toxic
same,Activity,[19],26%
same,"Papp at 18 h, 25 ug/ml",[20],6.03 ×10⁻⁶ cm/s
same,Activity,[21],Active
same,Activity,[22],Non-Toxic
same,inhibition,[23],Dose-Dependent Effect
same,Activity,[24],20%
same,inhibition,[25],Active
same,Activity,[26],62%
same,Activity,[27],Active
same,Activity,[28],Non-Toxic
same,Activity,[29],37%
same,IC50,[30],> 10 µM
same,Activity,[31],Active
same,Activity,[32],100%
same,Activity,[33],Non-Toxic
same,Activity,[34],Active
same,Activity,[35],Active
